Measured values published in BindingDB's records for doi:10.1016/s0960-894x(02)00294-9 (Glaxosmithkline, 2002).
pKi: −log10 of the molar value.

Target: Human cytomegalovirus protease (HHV-5)
Experiment: Tested in vitro for its binding affinity against Protease

pKi | Structure (SMILES)
5.96 | C[C@@H]1[C@H](C)[C@@H]1C(=O)N1C(=O)[C@@H](C)[C@@H]2[C@@H]1CCN2C(=O)[C@@H]1CCCN1S(=O)(=O)c1cccc2c(N(C)C)cccc12 [4-[1-(5-dimethylamino-1-naphthylsulfonyl)tetrahydro-1H-2-pyrrolylcarbonyl]-1-(2,3-dimethylcyclopropylcarbonyl)-3-methylperhydropyrrolo[3,2-b]pyrrol-2-one]
6.40 | C[C@@H]1C(=O)N(c2nccs2)[C@H]2CCN(C(=O)[C@@H]3CCCN3S(=O)(=O)c3cccc4c(N(C)C)cccc34)[C@H]12 [(3S,3aR,6aS)-4-[(S)-1-(5-Dimethylamino-naphthalene-1-sulfonyl)-pyrrolidine-2-carbonyl]-3-methyl-1-thiazol-2-yl-hexahydro-pyrrolo[3,2-b]pyrrol-2-one]
